From PMC6539495, “Anti-Cancer Activity of Novel Dihydrotestosterone-Derived Ring A-Condensed Pyrazoles on Androgen Non-Responsive Prostate Cancer Cell Lines” (International Journal of Molecular Sciences, 2019)

Columns and labels:
[1] = tested on: MDA-MB-231 cells; assay: MTT cell viability assay on MDA-MB-231 breast cancer cells; type: cell-based, human; settings: 72 hours
Experimental: (§1) HeLa, MCF-7 and MDA-MB-231 cells were obtained from Sigma-Aldrich and maintained as reported previously. MRC-5, PC-3, DU 145 cells were purchased from American Type Culture Collection (ATCC, Manassas, VA, USA). PC-3 and DU 145 were maintained in RPMI medium (Sigma-Aldrich) whereas MRC-5 cells were maintained in DMEM medium (Sigma-Aldrich). All media were complemented with 10% Fetal bovine serum (FBS, Sigma-Aldrich) 2 mM L-glutamine, 0.01% streptomycin and 0.005% ampicillin (Sigma-Aldrich). Cells were cultured under standard conditions in a 37 °C incubator containing 5% CO2 in 95% humidity.
(§2) Each test compound was dissolved in cell culture grade DMSO (Molar Chemicals, Halásztelek, Hungary) in a final concentration of […]. Antiproliferative action of the synthesized steroids was investigated by MTT assay. An amount of 5000 cells/well were seeded into 96 well plates. Twenty-four hours post seeding, all cell lines were treated with each compound in 10 and 30 μM concentrations for 72 hours. […] After 72 hours, cells were washed with PBS and incubated with culture medium containing 0.5 mg/mL MTT (3-(4, 5-dimethylthiazolyl-2)-2,5-diphenyltetrazolium bromide) reagent (SERVA, GmbH, Heidelberg, Germany) for an hour at 37 °C. Formazan crystals were solubilized in DMSO and extinction was measured at 570 nm using a Synergy HTX plate reader (BioTech-Hungary, Budapest, Hungary). MTT assays were performed at least three times using four independent biological replicates. Data were normalized to solvent controls and the graphical representation of the obtained data as well as the calculation of IC50 values were carried out by GraphPad Prism 7 software (GraphPad Software; San Diego, CA, USA).

[2] = tested on: DU 145 cells; assay: MTT cell viability assay on DU 145 prostate cancer cells; type: cell-based, human; settings: 72 hours
Experimental: as §1, §2

[3] = tested on: MRC-5 cells; assay: MTT cell viability assay on non-cancerous MRC-5 fibroblasts; type: cell-based; settings: 72 hours, MTT
Experimental: as §1, §2

[4] = tested on: MCF-7 cells; assay: MTT cell viability assay on MCF-7 breast cancer cells; type: cell-based, human; settings: 72 hours
Experimental: as §1, §2

[5] = tested on: HeLa cells; assay: MTT cell viability assay on HeLa cervical cancer cells; type: cell-based, human; settings: 72 hours
Experimental: as §1, §2

[6] = tested on: PC-3 cells; assay: MTT cell viability assay on PC-3 prostate cancer cells; type: cell-based, human; settings: for antiproliferative potency against PC-3 prostate cancer cells compared to MRC-5 non-cancerous fibroblasts: primary screen
Experimental: as §1, §2

SMILES | Mean values (%) of primary growth inhibitory screen (viability in %), MDA-MB-231 ([1]; 10 µM) | Mean values (%) of primary growth inhibitory screen (viability in %), MDA-MB-231 ([1]; 30 µM) | Mean values (%) of primary growth inhibitory screen (viability in %), DU 145 ([2]; 10 µM) | Mean values (%) of primary growth inhibitory screen (viability in %), DU 145 ([2]; 30 µM) | Mean values (%) of primary growth inhibitory screen (viability in %), MRC-5 ([3]; 10 µM) | Mean values (%) of primary growth inhibitory screen (viability in %), MRC-5 ([3]; 30 µM) | Mean values (%) of primary growth inhibitory screen (viability in %), MCF-7 ([4]; 10 µM) | Mean values (%) of primary growth inhibitory screen (viability in %), MCF-7 ([4]; 30 µM) | Mean values (%) of primary growth inhibitory screen (viability in %), HeLa ([5]; 10 µM) | Mean values (%) of primary growth inhibitory screen (viability in %), HeLa ([5]; 30 µM) | Mean values (%) of primary growth inhibitory screen (viability in %), PC-3 ([6]; 10 µM, 72 hours, MTT) | Mean values (%) of primary growth inhibitory screen (viability in %), PC-3 ([6]; 30 µM, 72 hours, MTT) | IC50 ([1]; ± SD) | IC50 ([2]; ± SD) | IC50 ([3]; ± SD) | IC50 ([4]; ± SD) | IC50 ([5]; ± SD) | antiproliferative potency against PC-3 prostate cancer cells compared to MRC-5 non-cancerous fibroblasts ([6]; 10 µM) | IC50 ([6]; MTT, 72 hours, ± SD) | antiproliferative potency against PC-3 prostate cancer cells compared to MRC-5 non-cancerous fibroblasts ([6]; 30 µM)
Cc1c2c(nn1-c1ccc(F)cc1)CC1CCC3C4CCC(O)C4(C)CCC3C1(C)C2 (stereo not drawn) [4f, 17β-Hydroxy-1′-(4″-fluorophenyl)-5′-methylpyrazolo[3′,4′:3,2]-5α-androstane] | 83.4% | 32.0% | 71.6% | 3.9% | 68.7% | 14.8% | 57.1% | 5.4% | 46.1% | 7.6% | 41.8% | 5.1% | – | – | – | – | – | – | – | –
Cc1c2c(nn1-c1ccc(Cl)cc1)C[C@@H]1CC[C@@H]3[C@H](CC[C@]4(C)[C@@H](O)CC[C@@H]34)[C@@]1(C)C2 [4g, 17β-Hydroxy-1′-(4″-chlorophenyl)-5′-methylpyrazolo[3′,4′:3,2]-5α-androstane] | 78.4% | 5.3% | 74.8% | 1.4% | 80.1% | 1.1% | 48.5% | 5.3% | 40.1% | 4.7% | 44.6% | 3.0% | 12.6 ± 1.5 µM | 14.2 ± 1.3 µM | 15.6 ± 1.4 µM | 4.4 ± 0.3 µM | 7.2 ± 0.4 µM | significantly higher | 7.7 ± 1.2 µM | –
Cc1c2c(nn1-c1ccc(Br)cc1)C[C@@H]1CC[C@@H]3[C@H](CC[C@]4(C)[C@@H](O)CC[C@@H]34)[C@@]1(C)C2 [4h, 17β-Hydroxy-1′-(4″-bromophenyl)-5′-methylpyrazolo[3′,4′:3,2]-5α-androstane] | 69.4% | 10.5% | 95.1% | 2.2% | 92.8% | 12.7% | 54.1% | 5.2% | 38.2% | 5.8% | 61.6% | 3.6% | – | – | – | – | – | – | – | –
Cc1c2c(nn1-c1ccc(C#N)cc1)C[C@@H]1CC[C@@H]3[C@H](CC[C@]4(C)[C@@H](O)CC[C@@H]34)[C@@]1(C)C2 [4i, 17β-Hydroxy-1′-(4″-cyanophenyl)-5′-methylpyrazolo[3′,4′:3,2]-5α-androstane] | 93.0% | 89.1% | 104.9% | 105.7% | 100.3% | 97.4% | 53.6% | 50.4% | 62.9% | 72.5% | 56.6% | 53.3% | – | – | – | – | – | significantly higher | – | significantly higher
Cc1ccccc1-n1nc2c(c1C)C[C@@]1(C)[C@@H](CC[C@@H]3[C@@H]1CC[C@]1(C)C(=O)CC[C@@H]31)C2 [5b, 1′-(2″-Tolyl)-5′-methylpyrazolo[3′,4′:3,2]-5α-androst-17-one] | 83.0% | 76.9% | 82.3% | 58.4% | 93.2% | 66.2% | 59.3% | 63.6% | 65.5% | 66.8% | 62.3% | 43.2% | – | – | – | – | – | – | – | significantly higher
Cc1ccc(-n2nc3c(c2C)CC2(C)C(CCC4C5CCC(=O)C5(C)CCC42)C3)cc1 (stereo not drawn) [5c, 1′-(4″-Tolyl)-5′-methylpyrazolo[3′,4′:3,2]-5α-androst-17-one] | 78.7% | 66.2% | 86.3% | 51.1% | 89.1% | 62.5% | 63.6% | 48.7% | 46.3% | 38.5% | 68.1% | 43.6% | – | – | – | – | – | – | – | –
